Assay results published in ChEMBL document CHEMBL1131601, “4-Amino-2-[4-[1-(benzyloxycarbonyl)-2(S)- [[(1,1-dimethylethyl)amino]carbonyl]-piperazinyl]-6, 7-dimethoxyquinazoline (L-765,314): a potent and selective alpha1b adrenergic receptor antagonist” (J Med Chem, 1998).

Tests used:
[1] = molecular target: T1, Alpha-1D adrenergic receptor (Homo sapiens, UniProt P25100); experiment: Compound was tested for its binding affinity utilizing cloned receptor binding assays by using [125 I]HEAT as radioligand to the human Alpha-1D adrenergic receptor
T1 sequence (P25100 whole entry): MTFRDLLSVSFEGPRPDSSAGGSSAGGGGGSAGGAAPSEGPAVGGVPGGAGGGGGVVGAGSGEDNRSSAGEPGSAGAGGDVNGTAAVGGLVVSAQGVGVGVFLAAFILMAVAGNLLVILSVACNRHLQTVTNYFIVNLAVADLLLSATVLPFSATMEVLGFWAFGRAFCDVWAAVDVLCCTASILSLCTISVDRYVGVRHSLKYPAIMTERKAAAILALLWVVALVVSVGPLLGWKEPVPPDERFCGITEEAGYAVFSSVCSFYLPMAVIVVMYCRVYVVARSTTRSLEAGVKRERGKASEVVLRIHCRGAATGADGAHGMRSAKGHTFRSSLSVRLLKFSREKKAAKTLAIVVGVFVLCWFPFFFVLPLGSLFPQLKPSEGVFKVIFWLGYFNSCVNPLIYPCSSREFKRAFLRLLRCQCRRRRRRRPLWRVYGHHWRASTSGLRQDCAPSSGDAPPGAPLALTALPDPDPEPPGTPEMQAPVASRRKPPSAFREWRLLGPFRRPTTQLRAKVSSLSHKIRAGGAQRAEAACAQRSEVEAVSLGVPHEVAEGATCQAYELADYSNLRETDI

[2] = molecular target: T2, Alpha-1D adrenergic receptor (Rattus norvegicus, UniProt P23944); experiment: Compound was evaluated for its ability to displace [125I]HEAT binding from rat Alpha-1D adrenergic receptor
T2 sequence (P23944 whole entry): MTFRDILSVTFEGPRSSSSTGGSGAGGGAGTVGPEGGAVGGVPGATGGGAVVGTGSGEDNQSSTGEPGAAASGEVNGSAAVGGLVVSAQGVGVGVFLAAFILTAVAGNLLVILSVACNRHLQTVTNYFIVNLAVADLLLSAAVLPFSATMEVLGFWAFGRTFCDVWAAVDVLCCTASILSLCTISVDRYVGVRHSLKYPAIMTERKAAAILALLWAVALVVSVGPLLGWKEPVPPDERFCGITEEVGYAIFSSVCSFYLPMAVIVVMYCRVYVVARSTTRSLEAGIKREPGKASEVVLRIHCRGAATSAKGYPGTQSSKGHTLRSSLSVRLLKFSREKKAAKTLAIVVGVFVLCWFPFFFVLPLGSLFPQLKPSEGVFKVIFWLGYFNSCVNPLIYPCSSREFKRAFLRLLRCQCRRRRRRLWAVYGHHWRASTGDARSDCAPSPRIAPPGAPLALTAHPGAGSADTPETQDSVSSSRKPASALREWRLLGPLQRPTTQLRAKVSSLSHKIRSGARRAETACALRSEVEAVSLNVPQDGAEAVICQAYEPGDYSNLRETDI

[3] = molecular target: T3, Alpha-1B adrenergic receptor (Rattus norvegicus, UniProt P15823); experiment: Compound was evaluated for its ability to displace [125I]HEAT binding from rat Alpha-1B adrenergic receptor
T3 sequence (P15823 whole entry): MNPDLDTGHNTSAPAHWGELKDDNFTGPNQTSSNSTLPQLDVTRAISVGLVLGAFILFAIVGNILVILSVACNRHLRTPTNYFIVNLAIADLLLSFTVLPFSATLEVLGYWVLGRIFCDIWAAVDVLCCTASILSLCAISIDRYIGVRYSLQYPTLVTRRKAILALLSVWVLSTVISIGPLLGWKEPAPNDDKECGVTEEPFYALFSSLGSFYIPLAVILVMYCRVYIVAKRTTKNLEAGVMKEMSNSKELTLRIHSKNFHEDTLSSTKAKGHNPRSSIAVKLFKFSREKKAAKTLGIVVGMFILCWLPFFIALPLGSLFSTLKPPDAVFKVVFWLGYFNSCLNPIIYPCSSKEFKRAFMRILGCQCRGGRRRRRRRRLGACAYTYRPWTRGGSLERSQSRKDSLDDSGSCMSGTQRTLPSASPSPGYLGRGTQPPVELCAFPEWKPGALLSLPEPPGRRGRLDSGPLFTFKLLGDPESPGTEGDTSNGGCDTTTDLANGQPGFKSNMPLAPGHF

[4] = molecular target: T4, Alpha-1B adrenergic receptor (Homo sapiens, UniProt P35368); experiment: Compound was tested for the tissue binding affinity using [125I]- HEAT as radioligand to the human aorta Alpha-1B adrenergic receptor; format: tissue-based
T4 sequence (P35368 whole entry): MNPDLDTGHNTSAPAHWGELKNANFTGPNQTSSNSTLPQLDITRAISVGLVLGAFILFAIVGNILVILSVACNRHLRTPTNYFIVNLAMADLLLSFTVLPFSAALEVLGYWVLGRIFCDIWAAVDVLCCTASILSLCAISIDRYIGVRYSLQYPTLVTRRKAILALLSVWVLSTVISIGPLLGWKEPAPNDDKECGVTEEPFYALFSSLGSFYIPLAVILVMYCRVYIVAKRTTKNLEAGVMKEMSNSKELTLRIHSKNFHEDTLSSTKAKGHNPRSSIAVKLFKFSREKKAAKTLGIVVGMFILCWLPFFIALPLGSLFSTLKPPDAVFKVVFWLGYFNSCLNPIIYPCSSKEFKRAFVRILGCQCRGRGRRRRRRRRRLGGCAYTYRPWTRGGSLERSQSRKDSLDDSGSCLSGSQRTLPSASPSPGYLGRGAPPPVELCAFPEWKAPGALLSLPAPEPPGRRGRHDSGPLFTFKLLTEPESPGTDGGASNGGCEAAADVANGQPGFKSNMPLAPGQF

[5] = molecular target: T5, Alpha-1A adrenergic receptor (Homo sapiens, UniProt P35348); experiment: Compound was tested for its binding affinity utilizing cloned receptor binding assays by using [125 I]HEAT as radioligand to the human Alpha-1A adrenergic receptor
T5 sequence (P35348 whole entry): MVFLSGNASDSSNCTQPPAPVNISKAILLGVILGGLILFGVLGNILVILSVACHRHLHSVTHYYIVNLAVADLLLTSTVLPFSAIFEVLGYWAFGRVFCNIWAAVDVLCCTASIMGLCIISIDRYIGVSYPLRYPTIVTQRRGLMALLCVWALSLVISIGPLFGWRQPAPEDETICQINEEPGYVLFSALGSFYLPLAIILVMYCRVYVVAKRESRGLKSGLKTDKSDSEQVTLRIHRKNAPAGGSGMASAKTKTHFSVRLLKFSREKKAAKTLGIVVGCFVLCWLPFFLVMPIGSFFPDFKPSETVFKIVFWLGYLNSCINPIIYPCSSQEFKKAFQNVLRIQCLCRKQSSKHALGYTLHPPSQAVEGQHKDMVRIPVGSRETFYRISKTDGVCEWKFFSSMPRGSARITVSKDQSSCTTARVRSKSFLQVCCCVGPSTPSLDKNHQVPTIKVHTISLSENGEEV

[6] = molecular target: T4, Alpha-1B adrenergic receptor; experiment: Compound was tested for its binding affinity utilizing cloned receptor binding assays by using [125 I]HEAT as radioligand to the human Alpha-1B adrenergic receptor
[7] = molecular target: T6, Alpha-1A adrenergic receptor (Rattus norvegicus, UniProt P43140); experiment: Compound was evaluated for its ability to displace [125I]HEAT binding from rat Alpha-1A adrenergic receptor
T6 sequence (P43140 whole entry): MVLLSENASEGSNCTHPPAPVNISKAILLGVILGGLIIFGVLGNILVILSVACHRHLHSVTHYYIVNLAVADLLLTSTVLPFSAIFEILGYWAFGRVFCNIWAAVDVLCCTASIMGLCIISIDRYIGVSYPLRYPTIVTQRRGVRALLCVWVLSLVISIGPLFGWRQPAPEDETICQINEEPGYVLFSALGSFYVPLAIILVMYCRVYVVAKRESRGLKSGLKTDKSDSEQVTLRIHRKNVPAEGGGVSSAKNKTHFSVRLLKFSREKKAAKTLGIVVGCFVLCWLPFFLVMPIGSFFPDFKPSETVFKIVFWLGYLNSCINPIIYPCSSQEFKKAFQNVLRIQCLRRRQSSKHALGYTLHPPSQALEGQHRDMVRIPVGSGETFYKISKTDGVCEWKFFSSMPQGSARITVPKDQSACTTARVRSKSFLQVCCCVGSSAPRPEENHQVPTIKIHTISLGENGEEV

[8] = molecular target: T5, Alpha-1A adrenergic receptor; experiment: Compound was tested for the tissue binding affinity using [3H]- Prazosin as radioligand to the human prostate Alpha-1A adrenergic receptor subtype
[9] = molecular target: T4, Alpha-1B adrenergic receptor; experiment: Compound was tested for the tissue binding affinity using [125I]- HEAT as radioligand to the human aorta Alpha-1B adrenergic receptor subtype.; format: tissue-based
[10] = molecular target: T6, Alpha-1A adrenergic receptor; experiment: Compound was tested for the tissue binding affinity using [3H]- Prazosin as radioligand to the rat prostate Alpha-1A adrenergic receptor subtype.
[11] = molecular target: T3, Alpha-1B adrenergic receptor; experiment: Compound was tested for the tissue binding affinity using [3H]- Prazosin as radioligand to the rat spleen Alpha-1B adrenergic receptor subtype.; format: tissue-based
[12] = molecular target: T3, Alpha-1B adrenergic receptor; experiment: Compound was tested for the tissue binding affinity using [3H]- Prazosin as radioligand to the rat liver Alpha-1B adrenergic receptor
[13] = molecular target: T4, Alpha-1B adrenergic receptor; experiment: Compound was tested for its binding affinity utilizing cloned receptor binding assays by using [125 I]HEAT as radioligand to the human Alpha-1B adrenergic receptor (n >= 2)
[14] = molecular target: T5, Alpha-1A adrenergic receptor; experiment: Compound was tested for the tissue binding affinity using [3H]- Prazosin as radioligand to the human prostate Alpha-1A adrenergic receptor subtype.
[15] = molecular target: T4, Alpha-1B adrenergic receptor; experiment: Compound was tested for binding affinity utilizing cloned receptor binding assays by using [125 I]HEAT as radioligand to the human Alpha-1B adrenergic receptor
[16] = molecular target: T1, Alpha-1D adrenergic receptor; experiment: Compound was tested for binding affinity utilizing cloned receptor binding assays by using [125 I]HEAT as radioligand to the human Alpha-1D adrenergic receptor
[17] = molecular target: T5, Alpha-1A adrenergic receptor; experiment: Compound was tested for binding affinity utilizing cloned receptor binding assays by using [125 I]HEAT as radioligand to the human Alpha-1A adrenergic receptor
[18] = molecular target: T6, Alpha-1A adrenergic receptor; experiment: Compound was tested for the tissue binding affinity using [3H]- Prazosin as radioligand to the rat prostate Alpha-1A adrenergic receptor subtype
[19] = molecular target: T3, Alpha-1B adrenergic receptor; experiment: Compound was tested for the tissue binding affinity using [3H]- Prazosin as radioligand to the rat spleen Alpha-1B adrenergic receptor subtype; format: tissue-based

Structure (SMILES)	Ki [1] [nM]	Ki [2] [nM]	Ki [3] [nM]	IC50 [4] [nM]	Ki [5] [nM]	Ki [6] [nM]	Ki [7] [nM]	IC50 [8] [nM]	IC50 [9] [nM]	IC50 [10] [nM]	IC50 [11] [nM]	IC50 [12] [nM]	Ki [13] [nM]	IC50 [14] [nM]	Ki [15] [nM]	Ki [16] [nM]	Ki [17] [nM]	IC50 [18] [nM]	IC50 [19] [nM]
COc1cc2nc(N3CCN(C(=O)C4CCCO4)CC3)nc(N)c2cc1OC (configuration not stated) [TERAZOSIN]	2	3.4	1.9	–	–	–	–	–	–	–	–	–	–	–	–	–	–	–	–
COc1cc2nc(N3CCN(C(=O)OCc4ccccc4)[C@H](C(=O)NC(C)(C)C)C3)nc(N)c2cc1OC [L-765314]	34	50	5.4	5800	420	2	500	590	8.8	340	9.3	9.3	–	–	–	–	–	–	–
COc1ccccc1N1CCN(CCN2C(=O)CC3(CCCC3)CC2=O)CC1 [BMY-7378]	–	–	328	–	–	–	–	–	–	–	–	–	191	–	–	–	–	–	–
COc1cc2nc(N3CCN[C@H](C(=O)NC(C)(C)C)C3)nc(N)c2cc1OC	–	630	1500	–	–	–	510	–	31	–	1500	2700	–	1700	25	250	830	–	–
COc1cc2nc(N3CCN(C(=O)c4ccco4)[C@H](C(=O)NC(C)(C)C)C3)nc(N)c2cc1OC	–	78	7	–	–	–	580	1900	–	–	–	15	–	–	3.5	73	1700	2000	14
